This is an account of results in ChEMBL document CHEMBL4808232, “Discovery of IDO1 inhibitors containing a decahydroquinoline, decahydro-1,6-naphthyridine, or octahydro-1H-pyrrolo[3,2-c]pyridine scaffold” (Bioorg Med Chem Lett, 2021).

SMILES strings stand for the structures. Activity calls are given as the source filed them. The rule behind the calls is not given here.

By IC50 is commonly meant the concentration at which inhibition is half-maximal.

Tryptophan 2,3-dioxygenase (Homo sapiens), sequence (P48775 whole entry, looked up): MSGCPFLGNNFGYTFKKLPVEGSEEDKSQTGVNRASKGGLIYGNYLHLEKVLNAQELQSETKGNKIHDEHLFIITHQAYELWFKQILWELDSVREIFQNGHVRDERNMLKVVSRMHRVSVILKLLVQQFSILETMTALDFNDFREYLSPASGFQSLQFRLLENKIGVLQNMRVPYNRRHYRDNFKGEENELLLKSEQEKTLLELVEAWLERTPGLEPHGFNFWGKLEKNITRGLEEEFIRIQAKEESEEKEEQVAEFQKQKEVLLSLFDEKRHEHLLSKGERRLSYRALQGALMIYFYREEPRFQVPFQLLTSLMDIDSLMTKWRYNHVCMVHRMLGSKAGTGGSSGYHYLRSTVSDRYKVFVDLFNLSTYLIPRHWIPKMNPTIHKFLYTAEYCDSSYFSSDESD

One experiment concerns the target Tryptophan 2,3-dioxygenase (Homo sapiens) (UniProt P48775). In words: Inhibition of TDO in human SW48 cells. The format is cell-based.
Consider `C[C@@H](C(=O)Nc1ccc(F)cc1)C1CCC2C(CCCN2C(=O)c2cccc(Cl)c2)C1` (stereo in doubt; 3), for which the inhibition result is “inactive”.
For the molecule `C[C@@H](C(=O)Nc1ccc(F)cc1)C1CCC2C(CCCN2C(=O)c2cccc(Cl)c2)C1` (stereo in doubt; 4) [listing 1 of 2 here], the inhibition result was “inactive”.
The same measure, in the same setting: the result for `C[C@@H](C(=O)Nc1ccc(F)cc1)C1CCC2C(CCCN2C(=O)c2cccc(Cl)c2)C1` (stereo in doubt; 5) reads “inactive”; that for `C[C@@H](C(=O)Nc1ccc(F)cc1)C1CCC2C(CCCN2C(=O)c2cccc(Cl)c2)C1` (stereo in doubt; 6), “inactive”.
On to `O=C(c1cccc(Cl)c1)N1CCCC2CC(C3(C(=O)Nc4ccc(F)cc4)CCC3)CCC21` (stereo in doubt; 7), for which the inhibition result is “inactive”.
Still for that read-out and setting: with `O=C(c1cccc(Cl)c1)N1CCCC2CC(C3(C(=O)Nc4ccc(F)cc4)CCC3)CCC21` (stereo in doubt; 8) [listing 1 of 2 here] the entry was “inactive”; with `O=C(c1cccc(Cl)c1)N1CCCC2CC(C3(C(=O)Nc4ccc(F)cc4)CCC3)CCC21` (stereo in doubt; 9) [listing 1 of 2 here], “inactive”.

The target of another experiment is Indoleamine 2,3-dioxygenase 1 (Homo sapiens, UniProt P14902). In words: Inhibition of IDO1 in human HeLa cells assessed as production of N-formylkynurenine using tryptophan as substrate in presence of inactivated fetal bovine serum. The format is cell-based.
Indoleamine 2,3-dioxygenase 1, sequence (P14902 whole entry): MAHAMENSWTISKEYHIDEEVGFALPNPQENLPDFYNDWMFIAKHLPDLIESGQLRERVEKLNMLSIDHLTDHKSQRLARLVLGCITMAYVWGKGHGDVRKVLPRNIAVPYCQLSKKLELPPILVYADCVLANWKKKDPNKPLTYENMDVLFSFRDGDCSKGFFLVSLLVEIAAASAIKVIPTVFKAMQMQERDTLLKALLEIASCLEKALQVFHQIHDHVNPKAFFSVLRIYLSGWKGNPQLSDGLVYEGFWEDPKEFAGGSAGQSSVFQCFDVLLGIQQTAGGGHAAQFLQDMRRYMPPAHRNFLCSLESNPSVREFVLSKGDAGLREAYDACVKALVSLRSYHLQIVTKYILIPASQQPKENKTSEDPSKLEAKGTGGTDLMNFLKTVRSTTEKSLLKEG
Regarding `C[C@@H](C(=O)Nc1ccc(F)cc1)C1CCC2C(CCCN2C(=O)c2cccc(Cl)c2)C1` (stereo in doubt; 4) [listing 2 of 2 here], the 50% inhibitory concentration (IC50) stood at 0.0019 µM.
On the same count and under the same terms, the result for `O=C(c1cccc(Cl)c1)N1CCCC2CC(C3(C(=O)Nc4ccc(F)cc4)CCC3)CCC21` (stereo in doubt; 8) [listing 2 of 2 here] reads 0.003 µM.
Same read-out and setting: with `O=C(c1cccc(Cl)c1)N1CCCC2CC(C3(C(=O)Nc4ccc(F)cc4)CCC3)CCC21` (stereo in doubt; 9) [listing 2 of 2 here] the figure was 0.007 µM; with `O=C(c1cccc(Cl)c1)N1CCCC2CC(C3(C(=O)Nc4ccc(F)cc4)CCC3)CCC21` (stereo in doubt; 10), 0.014 µM.
The same measure, in the same setting: the result for `O=C(C1CC1)N1CCCC2CC(C3(C(=O)Nc4ccc(F)cc4)CCC3)CCC21` (stereo in doubt; 11) reads 0.107 µM.
As to `O=C(C1CC1)N1CCCC2CC(C3(C(=O)Nc4ccc(F)cc4)CCC3)CCC21` (stereo in doubt; 13), the IC50 turned out to be 0.019 µM.
Still for that read-out and setting: the result for `O=C(C1CC1)N1CCCC2CC(C3(C(=O)Nc4ccc(F)cc4)CCC3)CCC21` (stereo in doubt; 14) reads 0.115 µM; that for `Cc1nccc(N2CCCC3CC(C4(C(=O)Nc5ccc(F)cc5)CCC4)CCC32)n1` (stereo in doubt; 17), 0.032 µM.
On to `Cc1nccc(N2CCCC3CC(C4(C(=O)Nc5ccc(F)cc5)CCC4)CCC32)n1` (stereo in doubt; 18), for which the IC50 came out at 0.0052 µM.
`O=C(CN1CCC2C(CCCN2C(=O)c2cccc(Cl)c2)C1)Nc1ccc(F)cc1` (stereo in doubt; 23): the concentration for half-maximal inhibition (IC50) stood at 0.0039 µM.
Same read-out and setting: the result for `CC(C(=O)Nc1ccc(Cl)cc1)N1CCC2C(CCCN2C(=O)OC2CC2)C1` (stereo in doubt; 26) reads 0.0091 µM; that for `CC(C(=O)Nc1ccc(Cl)cc1)N1CCC2C(CCCN2C(=O)OC2CC2)C1` (stereo in doubt; 28), 0.032 µM; that for `Cc1nccc(N2CCCC3CN(C(C)C(=O)Nc4ccc(Cl)cc4)CCC32)n1` (stereo in doubt; 29), 0.302 µM.
On the same count and under the same terms, with `Cc1nccc(N2CCCC3CN(C(C)C(=O)Nc4ccc(Cl)cc4)CCC32)n1` (stereo in doubt; 30) the figure was 0.04 µM; with `CC(C(=O)Nc1ccc(Cl)cc1)N1CCC2C(CCCN2c2ccnc(C(F)(F)F)n2)C1` (stereo in doubt; 35), 0.43 µM.
Same read-out and setting: with `CC(C(=O)Nc1ccc(Cl)cc1)N1CCC2C(CCN2C(=O)OC2CC2)C1` (stereo in doubt; 37) the figure was 0.011 µM.
As to `CC(C(=O)Nc1ccc(Cl)cc1)N1CCC2C(CCN2C(=O)OC2CC2)C1` (stereo in doubt; 40), the IC50 stood at 1.15 µM.
With `Cc1nccc(-n2ncc3c2CCN(C(C)C(=O)Nc2ccc(Cl)cc2)C3)n1` (stereo in doubt; 41), the IC50 stood at 1.05 µM.
`Cc1nccc(-n2ncc3c2CCN(C(C)C(=O)Nc2ccc(Cl)cc2)C3)n1` (stereo in doubt; 42): the IC50 came out at 27.7 µM.
